Experimental data from patent US20070265238A1, “METHOD FOR ACCELERATING REENTRAINMENT OF A CIRCADIAN RHYTHM” (priority 2006, published 2007).

Tested on: body temperature rhythms
Assay: Reentrainment of body temperature circadian rhythm after eastward jet travel across 6 time zones (Detroit to Vienna)
Type: in vivo, human
Conditions: applied beneath nostrils each morning on awakening; for length of time to reestablish stable body temperature rhythms: women, vs control vehicle (mineral oil and clove oil), FIG. 1
Description: This experimental involved 15 subjects who were traveling from Detroit, Michigan to Vienna, Austria by air, a journey which spanned 6 time zones. The subjects comprised 8 women and 5 men aged 18-19 and 2 women […]. Two groups of compositions were prepared. The first comprised an experimental formulation containing 20 micrograms of 4,16-androstadien-3-one dissolved in a mixture of mineral oil and clove oil. A second composition comprising a control/placebo consisted of the mineral oil and clove oil. The 2 compositions were each packaged in 5 ml and supplied to selected test subjects along with cotton-tipped applicators. The test and control materials were randomly distributed, and participants were unaware of which composition they had obtained.
Upon arrival in Vienna, each participant was directed to place a small amount of their particular composition directly beneath their nostrils with a new cotton applicator immediately upon awakening each morning. The participants were directed to allow the compositions to remain on their skin for at least an hour.
External temperature monitors (iButton, Inc., Pittsburgh, Pa.) were affixed to each of the subjects with a gauze protective layer between the skin and the monitoring device. The monitors were covered with neoprene material for insulation against environmental temperature interference and held in place with a waterproof medical bandage which was changed every 3 days or as necessary. The monitoring devices were set to acquire temperature every 10 minutes throughout the entire period of the experiment and for a 3-day period prior to travel. Participants also kept daily event logs to monitor the timing of activities that could influence temperature data such as sleep and wake times, showers, exercise and naps. […]
Data were analyzed to determine the length of time needed for core temperature rhythms to reentrain with the new time schedule, returning to a phase angle of entrainment similar to that recorded before travel. […]

C[C@@]12C=CC[C@H]1[C@@H]1CCC3=CC(=O)CC[C@]3(C)[C@H]1CC2 [4,16-androstadien-3-one]
reentrainment rate of body temperature rhythms (men, vs control vehicle): no effects
length of time to reestablish stable body temperature rhythms: accelerate reestablishment of body temperature rhythms
length of time to reestablish stable body temperature rhythms (listed as pheromone): reentrained significantly faster
